Earlier results, collected in patent US20050148561A1, “Novel triterpene derivatives, preparation thereof and use thereof” (Panacos Pharmaceuticals, Inc., priority 2003, published 2005).
Where two headings read alike, the source gives them in different places.

Test system: HIV-1

| Structure (SMILES) | T.I. (H9 lymphocyte cells) | EC50 (H9 lymphocyte cells, read-out: EC50, inhibitory activity against HIV-1 replication) | EC50 (unit inferred, read-out: EC50, anti-HIV activity) |
| --- | --- | --- | --- |
| CC(=O)[C@@H]1CC[C@]2(C(=O)O)CC[C@]3(C)[C@H](CC[C@@H]4[C@@]5(C)CC[C@H](O)C(C)(C)[C@@H]5CC[C@]43C)[C@@H]12 [platanic acid] | 14 | 6.5 µM | – |
| CC(C)[C@@H]1CC[C@]2(C(=O)O)CC[C@]3(C)C(CCC4[C@@]5(C)CC[C@H](O)C(C)(C)C5CC[C@]43C)C12 (stereo partly shown) [dihydrobetulinic acid] | 14 | – | 0.9 µM |
